Measured values: the METLIN SMRT retention time set (Domingo-Almenara et al. 2019)

Experiment: gradient 5% acetonitrile 3 min, to 50% in 2 min, to 85% in 15 min, held 3 min, 100 µL/min
Details: column: Zorbax Extend-C18 2.1 x 50 mm; eluents: water / acetonitrile, 0.1% formic acid
Method in brief: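 A Zorbax Extend-C18 column (2.1 × 50 mm, 1.8 μm) run at 100 μL/min with water and acetonitrile, both containing 0.1% formic acid, separated mixtures of ~100 pure standards. The HPLC was coupled to a quadrupole time-of-flight mass spectrometer operated in positive and negative ionization mode, with dead and dwell volumes of 40 μL and 900 μL. Each retention time was taken from a computationally picked adduct peak that was then manually inspected.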

Cc1cccc(C)c1NC(=O)Cn1c(C)nc2onc(C)c2c1=O
RP-LC retention time: 845 s

CCn1c(=O)c(N2CCC(NC(=O)Nc3ccc(Br)cc3)CC2)nc2ccccc21
RP-LC retention time: 1020 s

COc1ccc(Cn2c(=O)c3ccnn3c3ccc(C(=O)O)cc32)cc1
RP-LC retention time: 777 s

Cc1nnsc1C(=O)N1CC2CC(C1)c1cccc(=O)n1C2 (stereo not given)
RP-LC retention time: 551 s

Cc1sc2ccn(Cc3ccc(F)cc3)c(=O)c2c1C(=O)NCc1ccco1
RP-LC retention time: 912 s

O=C(c1ccco1)N1CCN(c2nc(N3CCOCC3)c3n[nH]nc3n2)CC1
RP-LC retention time: 598 s

Fc1ccc(-c2nc(-c3ccc(-n4ccnc4)nc3)no2)cc1
RP-LC retention time: 732 s

Cc1ccc(-c2csc(NC(=O)CN3C(=O)COc4ccc(Cl)cc43)n2)cc1
RP-LC retention time: 1070 s

COc1ccc(-c2ncccc2CNC(=O)C2CC2)cc1
RP-LC retention time: 569 s

OCCNCc1ccc(-c2cccc(C(F)(F)F)c2)o1
RP-LC retention time: 649 s

Cc1ccc(NS(=O)(=O)c2ccc(-c3nnc(C4CCC4)o3)o2)cc1F
RP-LC retention time: 962 s

O=C(NCCc1csc(C2CCCN(C(=O)CC3CCCC3)C2)n1)C1CC1 (stereo not given)
RP-LC retention time: 757 s

O=C(Cc1csc(-c2ccccc2)n1)Nc1nc(-c2ccc3c(c2)CCCC3)cs1
RP-LC retention time: 764 s

O=C(CCC1CCCC1)N1CCN(c2nnc3ccc(Cl)cn23)CC1
RP-LC retention time: 832 s

c1ccc2c(-c3nc(C4CC4)no3)nnc(NC3CCCCC3)c2c1
RP-LC retention time: 775 s

O=C(c1cccs1)N1[C@H]2CC[C@@H]1c1cnc(-c3ccc(F)cc3)nc1C2
RP-LC retention time: 979 s

CCc1nc(-c2nnn(-c3ccccc3)c2C)no1
RP-LC retention time: 863 s

O=C(COc1ccc2ccccc2c1)NCC1CCN(c2ncccn2)CC1
RP-LC retention time: 762 s

CCc1c(C)nc2nc(-c3ccccc3)nn2c1Nc1cc(OC)ccc1OC
RP-LC retention time: 972 s

CCN1CCN(CCNC(=O)C2CCCN(S(=O)(=O)c3ccc4c(ccn4CC)c3)C2)CC1 (stereo not given)
RP-LC retention time: 626 s

Cc1ccc2c(Nc3ccc(CC(=O)O)cc3)c(C(=O)N3CCCC3)cnc2n1
RP-LC retention time: 572 s

Cc1cc2cc(CNC(=O)C(=O)c3c[nH]c4ccccc34)ccc2[nH]1
RP-LC retention time: 878 s

Cc1cc(Cl)ccc1S(=O)(=O)N1CCc2nn(CC(C)C)c(=O)n2CC1
RP-LC retention time: 919 s

CCC(C(=O)N1CCOc2ccc(C)cc21)n1cnc2nc3c(cc2c1=O)CCCC3 (stereo not given)
RP-LC retention time: 950 s

CCCn1c(CCNC(=O)c2ccccc2F)nc2cccnc21
RP-LC retention time: 644 s

Cc1noc(C)c1CN1CCN(C(=O)c2nc3ccccc3s2)CC1
RP-LC retention time: 574 s

O=C(Cn1cnc2nc3c(cc2c1=O)CCCC3)NCCc1ccccc1
RP-LC retention time: 728 s

CCN(CC)S(=O)(=O)N1CCC(C(=O)NCCc2ccccc2)CC1
RP-LC retention time: 817 s

CSc1ccccc1NC(=O)CCCn1cccc1
RP-LC retention time: 1000 s

CCc1nc(-c2cc(S(=O)(=O)NCC(=O)N3CCCCC3)c(C)s2)no1
RP-LC retention time: 891 s

CCN(CC)C(=O)c1ccc2c(c1)N(CC(=O)NC1CCCCCCC1)C(=O)CS2
RP-LC retention time: 879 s

CCn1ccc2oc(C)c(C(=O)N3CCN(c4cccc(Cl)c4)CC3)c2c1=O
RP-LC retention time: 896 s

CSc1ccc(-c2nc3cnccn3c2Nc2ccc(C(N)=O)cc2)cc1
RP-LC retention time: 658 s

Cc1cc(N)c2cc(NC(=O)/C=C\c3ccccc3Cl)ccc2n1
RP-LC retention time: 751 s

Cc1cc(NC(=O)NC(=O)c2ccccc2NC(=O)C(C)N)ccc1Oc1ncc(Br)cn1 (stereo not given)
RP-LC retention time: 715 s

O=C(CC1CCN(C(=O)c2ccc3nc(-c4ccccc4)oc3c2)CC1)NC1CC1
RP-LC retention time: 730 s

COCCN1C(=O)CCc2cc(NS(=O)(=O)c3ccccc3Br)ccc21
RP-LC retention time: 763 s

COC(=O)c1cc2c(=O)n(Cc3ccccc3Cl)ccc2nc1C
RP-LC retention time: 902 s

CCOc1ccc(N(C)S(=O)(=O)c2ccsc2C(=O)NCCCc2ccccc2)cc1
RP-LC retention time: 1210 s

CCn1ccc(C(=O)NC2CCCC2)n1
RP-LC retention time: 709 s

Clc1cccc(Nc2nnc(-c3ccccc3)c3ccccc23)c1
RP-LC retention time: 790 s

CCc1ccc(Oc2cc(N3CCC(C(=O)NCCc4ccccc4)CC3)ncn2)cc1
RP-LC retention time: 998 s

O=C(Cn1cnc2c(sc3nc(-c4ccccc4)ccc32)c1=O)NCCc1ccc(Cl)cc1
RP-LC retention time: 1060 s

COCCN1CCC(N2CCCN(C(=O)c3ccc(F)c(Cl)c3)CC2)C1=O (stereo not given)
RP-LC retention time: 573 s

Cn1cc(C(=O)Nc2ccc(Cl)cc2)c2cccnc21
RP-LC retention time: 835 s

O=C(Nc1cccc(Br)c1)c1cc(-c2ccccn2)n[nH]1
RP-LC retention time: 843 s

O=C(c1ccsc1)N1CC(c2nc(CCOCC3CCOCC3)no2)C1
RP-LC retention time: 696 s

CCCCNC(=O)c1ccc2c(c1)N(C)C(=O)C1CCCCN21 (stereo not given)
RP-LC retention time: 813 s

COc1ccc(-c2noc(CN3CCN(c4ccc(OC)cc4)CC3)n2)cc1
RP-LC retention time: 809 s

Cc1ccccc1-c1nc2cnccn2c1NCCC(=O)NCC(C)C
RP-LC retention time: 636 s

COc1ccc(NC(=O)Cn2c(=O)n(-c3ccc(F)cc3)c(=O)c3c2cc(C)n3C)cc1
RP-LC retention time: 812 s

Cn1cccc1C(=O)C(=O)NCCc1ccc(Cl)cc1
RP-LC retention time: 939 s

CN1C(=O)Cc2ccccc2C1C(=O)NCc1ccco1 (stereo not given)
RP-LC retention time: 668 s

CN1C(=O)c2cc(C(=O)N3CCN(c4ccccc4F)CC3)nn2CC1(C)C(=O)NC1CCCC1 (stereo not given)
RP-LC retention time: 801 s

O=C(NCc1ccc(F)cc1)C1CCCN(S(=O)(=O)c2c[nH]c(C(=O)N3CCCC3)c2)C1 (stereo not given)
RP-LC retention time: 747 s

Cn1ncc2c(Nc3cccc(Cl)c3)nc(N3CCCC3)nc21
RP-LC retention time: 978 s

c1cc(CN2CCCCC2c2nncn2CC2CC2)co1 (stereo not given)
RP-LC retention time: 561 s

CS(=O)(=O)N1CCc2cc(NC(=O)Nc3ccc(Br)cc3F)ccc21
RP-LC retention time: 954 s

O=C(CSc1nccc(-c2ccc3c(c2)OCO3)n1)c1ccc2c(c1)OCO2
RP-LC retention time: 888 s

Cc1cc(Nc2ccc(C(=O)NC3CC3)cc2)n2nc(-c3cccnc3)nc2n1
RP-LC retention time: 612 s

O=C(Cn1c(=O)c2cccn2c2ccc(F)cc21)Nc1ccccc1F
RP-LC retention time: 858 s

CC1CCN(S(=O)(=O)c2ccc(-c3nnc(C(=O)NC4CCCC4)o3)cc2)CC1
RP-LC retention time: 1030 s

CCCCN1C(=O)C(C)(C(=O)Nc2ccccc2)Oc2cccnc21 (stereo not given)
RP-LC retention time: 999 s

Cc1ccc(-c2nc(-c3ccc4c(c3)oc(=O)n4C)no2)cc1
RP-LC retention time: 1120 s

CN1CCN(C(CNC(=O)C(=O)Nc2ccc(Cl)cc2)c2ccc3c(c2)OCO3)CC1 (stereo not given)
RP-LC retention time: 716 s

COc1ccc(-c2n[nH]c3c2C(c2ccc(OC)c(OC)c2)NC3=O)cc1 (stereo not given)
RP-LC retention time: 637 s

Cc1cccn2cc(C(=O)NCc3ccc(F)cc3F)nc12
RP-LC retention time: 733 s

Cc1cc(C)c(NC(=O)C2CCCN(c3nc4ccccc4nc3C(F)(F)F)C2)c(C)c1 (stereo not given)
RP-LC retention time: 701 s

O=C(NCCCO)C(=O)NCCc1ccc(Cl)cc1
RP-LC retention time: 698 s

COc1ccc(CCNCC(O)Cn2c3c(c4ccccc42)CCN(C)C3=O)cc1OC (stereo not given)
RP-LC retention time: 666 s

CCOC(=O)c1[nH]c(C)c(C(=O)C(C)N(CCOC)C(=O)c2ccccc2Cl)c1C (stereo not given)
RP-LC retention time: 820 s

CN(C)C[C@@H]1CN(c2ncccn2)C[C@H]1NS(=O)(=O)c1ccc(C#N)cc1
RP-LC retention time: 589 s

CCOc1ccccc1NC(=O)C1CCCN(c2nc3ccccc3nc2OCC)C1 (stereo not given)
RP-LC retention time: 1320 s

O=C(CSc1ccc(NC(=O)c2cccs2)nn1)Nc1ccccc1C(F)(F)F
RP-LC retention time: 842 s

CCc1nc(OCC(=O)NCCCOC)c2c(-c3ccc(F)cc3)noc2n1
RP-LC retention time: 890 s

O=C(CN1CCCc2nc(C3CC3)ncc2C1=O)NCCCN1CCCC1=O
RP-LC retention time: 594 s

O=C(CCn1nnc2cc(-c3noc(Cc4ccc(Cl)cc4)n3)ccc21)N1CCOCC1
RP-LC retention time: 878 s

Clc1cccc(-c2csc(Cc3nc(-c4ccc5c(c4)OCO5)no3)n2)c1
RP-LC retention time: 1260 s

CSc1ccccc1NC(=O)C(=O)NCCn1nc(-c2ccco2)ccc1=O
RP-LC retention time: 781 s

COc1ccccc1OCC(=O)NCCN1CCN(c2ccccc2OC)CC1
RP-LC retention time: 574 s

Cc1cccc(-c2csc3c(=O)n(Cc4cc(=O)n5ccccc5n4)cnc23)c1
RP-LC retention time: 831 s

O=C(Nc1ccc2c(c1)OCCO2)C1CCCN(S(=O)(=O)Cc2ccc(Cl)cc2)C1 (stereo not given)
RP-LC retention time: 968 s

Cc1c(C(=O)N2CCC(C)CC2)cnn1-c1cc(-c2nc(C(C)(C)C)no2)ccn1
RP-LC retention time: 1240 s

O=C(O)c1cn(CCOc2ccccc2)c2ccccc12
RP-LC retention time: 885 s

Cc1nc2cc(-c3noc(CNC(=O)Cc4ccc(Cl)cc4)n3)ccc2n(C2CCCC2)c1=O
RP-LC retention time: 1020 s

O=C(CCNc1c(-c2ccccc2)nc2cnccn12)NCc1ccccc1F
RP-LC retention time: 698 s

O=C(NCCn1c(=O)n(Cc2ccc(F)cc2)c2cccnc21)c1ccsc1
RP-LC retention time: 762 s

COc1ccc(CNC(=O)Cn2c(N)nc(C)cc2=O)cc1
RP-LC retention time: 603 s

O=C1[C@H]2CN(Cc3ccccc3F)C[C@H]2C(=O)N1Cc1ccc2c(c1)OCO2
RP-LC retention time: 792 s

COC(=O)c1cnn(-c2ccc(C(=O)N3CCCC3)cc2)c1N
RP-LC retention time: 654 s
